Results reported in ChEMBL document CHEMBL1129927, “Further evidence for a dopamine reuptake pharmacophore. The effect of N-methylation on Threo-methylphenidate and its analogs” (Bioorg Med Chem Lett, 1997).

Assays:
[1] = target: Sodium-dependent dopamine transporter (Rattus norvegicus, UniProt P23977); assay: The compound was tested for its affinity at the rat striatal dopamine transporter by the displacement of [3H]WIN-35428
[2] = Hill coefficient was determined
[3] = Ratio of inhibitory concentration of compound 5d to 6d

Chain of Sodium-dependent dopamine transporter (P23977 whole entry): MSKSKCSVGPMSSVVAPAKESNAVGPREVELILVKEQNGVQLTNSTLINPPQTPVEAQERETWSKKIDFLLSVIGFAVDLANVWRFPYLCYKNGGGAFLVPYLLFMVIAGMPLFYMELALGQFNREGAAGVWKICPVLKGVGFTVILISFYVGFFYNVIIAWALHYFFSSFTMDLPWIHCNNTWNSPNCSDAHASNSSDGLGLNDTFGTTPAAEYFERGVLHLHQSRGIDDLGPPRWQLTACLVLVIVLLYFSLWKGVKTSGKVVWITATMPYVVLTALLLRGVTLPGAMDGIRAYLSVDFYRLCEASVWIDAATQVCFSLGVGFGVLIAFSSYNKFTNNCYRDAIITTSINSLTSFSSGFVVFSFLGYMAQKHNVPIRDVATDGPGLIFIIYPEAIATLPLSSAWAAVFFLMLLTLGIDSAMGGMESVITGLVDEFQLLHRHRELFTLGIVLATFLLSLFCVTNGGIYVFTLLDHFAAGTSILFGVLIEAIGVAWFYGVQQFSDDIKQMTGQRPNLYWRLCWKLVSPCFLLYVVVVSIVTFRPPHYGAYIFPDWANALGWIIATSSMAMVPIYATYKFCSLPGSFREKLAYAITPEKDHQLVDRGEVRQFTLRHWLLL

Structure (SMILES) | IC50 [1] | Hill coefficient [2] | Ratio [3]
COC(=O)[C@H](c1cccc(C)c1)[C@H]1CCCCN1 | 21.4 nM | 1.01 | –
COC(=O)[C@H](c1cccc(C)c1)[C@H]1CCCCN1C | 108 nM | 1 | –
COC(=O)[C@H](c1ccc(O)cc1)[C@H]1CCCCN1C | 1220 nM | 1.06 | –
COC(=O)[C@H](c1ccccc1)[C@H]1CCCCN1C | 500 nM | 1 | –
COC(=O)[C@H](c1ccc(C)cc1)[C@H]1CCCCN1C | 139 nM | 1.03 | –
COC(=O)[C@H](c1cccc(Cl)c1)C1CCCCN1 (stereo not given in full) | 5.1 nM | 0.95 | –
COC(=O)[C@H](c1ccc(C)cc1)C1CCCCN1 (stereo not given in full) | 33 nM | 1.05 | 4.2
COC(=O)[C@H](c1cccc(Cl)c1)[C@H]1CCCCN1C | 161 nM | 0.96 | –
COC(=O)[C@H](c1ccc(O)cc1)[C@H]1CCCCN1 | 98 nM | 1.07 | –
COC(=O)[C@H](c1ccccc1)[C@H]1CCCCN1 | – | 0.9 | –
